Patent publication US10246462B2, “Chemokine receptor modulators and uses thereof” (FLX Bio, Inc., priority 2016, dated 2019)
Counter-ions that a name gives are not always drawn.

Target: CCR4 (Homo sapiens (Human), UniProt P51679)
Experiment: Calcium mobilization (Ca Flux) assay
Format: cell-based
Conditions: not given
Experimental: Calcium Mobilization Assay. Calcium mobilization experiments may be performed by labeling the human T-cell line CEM with […] dye (45 min at room temperature), washing with PBS, and re-suspending into flux buffer (HBSS with 1% FBS).

CCR4, sequence (P51679 whole entry): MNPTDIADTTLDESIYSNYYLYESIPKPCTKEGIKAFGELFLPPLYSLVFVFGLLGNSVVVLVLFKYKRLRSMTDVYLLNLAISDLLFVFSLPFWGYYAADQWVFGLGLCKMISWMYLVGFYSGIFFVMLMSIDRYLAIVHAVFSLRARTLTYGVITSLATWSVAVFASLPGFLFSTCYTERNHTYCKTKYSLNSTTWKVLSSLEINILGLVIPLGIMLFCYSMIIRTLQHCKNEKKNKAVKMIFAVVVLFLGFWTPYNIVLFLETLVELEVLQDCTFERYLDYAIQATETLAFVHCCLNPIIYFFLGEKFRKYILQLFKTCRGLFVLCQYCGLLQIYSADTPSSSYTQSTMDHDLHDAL

IC50 [nM]	SMILES
< 100	Cc1nn([C@H](C)c2ccc(Cl)cc2Cl)c2nc(C3=CCC(N4CCC[C@H]4CCC(N)=O)[C@H](C)C3)cnc12 (stereo partly drawn) [Example 77, 3-((S)-1-((1S,6R)-4-(1-((R)-1-(2,4-Dichlorophenyl)ethyl)-3-methyl-1H-pyrazolo[3,4-b]pyrazin-6-yl)-6-methylcyclohex-3-en-1-yl)pyrrolidin-2-yl)propanamide 2,2,2-trifluoroacetae]
100 to 500	CC1CC(c2cnc3c(C#N)nn([C@H](C)c4ccc(Cl)cc4Cl)c3n2)=CCC1N1CCC[C@H]1CC(=O)O (mixture of isomers) [Example 85, 2-((2S)-1-(4-(3-Cyano-1-((R)-1-(2,4-dichlorophenyl)ethyl)-1H-pyrazolo[3,4-b]pyrazin-6-yl)-6-methylcyclohex-3-en-1-yl)pyrrolidin-2-yl)acetic acid 2,2,2-trifluoroacetate]
100 to 500	CC1CC(c2cnc3c(C(F)(F)F)nn([C@H](C)c4ccc(Cl)cc4Cl)c3n2)=CCC1N1CCC[C@H]1CO (stereo partly drawn) [Example 89]
100 to 500	Cc1nn([C@H](C)c2ccc(Cl)cc2Cl)c2nc(N3CCC(N4CCC[C@H]4C(C)CC(=O)O)C(C)C3)cnc12 (stereo partly drawn) [Example 60, 3-((2S)-1-(1-(1-((R)-1-(2,4-Dichlorophenyl)ethyl)-3-methyl-1H-pyrazolo[3,4-b]pyrazin-6-yl)-3-methylpiperidin-4-yl)pyrrolidin-2-yl)butanoic acid 2,2,2-trifluoroacetate]
> 500	Cc1nn([C@H](C)c2ccc(Cl)cc2Cl)c2nc(N3CCC(N4CCC[C@H]4CC(F)C(=O)O)C(C)C3)cnc12 (single isomer, unassigned) [Example 57]
< 100	Cc1nn([C@H](C)c2ccc(Cl)cc2Cl)c2nc(C3=CC[C@H](N4CCC[C@H]4CCC(=O)O)[C@H](C)C3)cnc12 [Example 71, 3-((S)-1-((1S,6R)-4-(1-((R)-1-(2,4-Dichlorophenyl)ethyl)-3-methyl-1H-pyrazolo[3,4-b]pyrazin-6-yl)-6-methylcyclohex-3-en-1-yl)pyrrolidin-2-yl)propanoic acid hydrochloride]
< 100	Cc1nn([C@H](C)c2ccc(Cl)cc2Cl)c2nc(N3CC[C@H](N4CCC[C@H]4CCS(N)(=O)=O)[C@H](C)C3)cnc12 [Example 52, 2-((S)-1-((3R,4S)-1-(1-((R)-1-(2,4-Dichlorophenyl)ethyl)-3-methyl-1H-pyrazolo[3,4-b]pyrazin-6-yl)-3-methylpiperidin-4-yl)pyrrolidin-2-yl)ethane-1-sulfonamide hydrochloride]
100 to 500	CC1C=C(c2cnc3c(C#N)nn([C@H](C)c4ccc(Cl)cc4Cl)c3n2)CCC1N1CCC[C@H]1CCC(=O)O (stereo partly drawn) [Example 73, 3-((2S)-1-(4-(3-Cyano-1-((R)-1-(2,4-dichlorophenyl)ethyl)-1H-pyrazolo[3,4-b]pyrazin-6-yl)-2-methylcyclohex-3-en-1-yl)pyrrolidin-2-yl)propanoic acid 2,2,2-trifluoroacetate]
100 to 500	CCOC(=O)c1nn(C(C)c2ccc(Cl)cc2Cl)c2nc(N3CCC(N4CCCCC4)C(C)C3)cnc12 (stereo not drawn) [Example 2, Ethyl 1-(1-(2,4-dichlorophenyl)ethyl)-6-(3′-methyl-[1,4′-bipiperidin]-1′-yl)-1H-pyrazolo[3,4-b]pyrazine-3-carboxylate hydrochloride]
< 100	Cc1nn([C@H](C)c2ccc(Cl)cc2Cl)c2nc(C3=CCC(N4CCC[C@H]4CO)C(C)C3)cnc12 (stereo partly drawn) [Example 78, ((2S)-1-(4-(1-((R)-1-(2,4-Dichlorophenyl)ethyl)-3-methyl-1H-pyrazolo[3,4-b]pyrazin-6-yl)-6-methylcyclohex-3-en-1-yl)pyrrolidin-2-yl)methanol]
100 to 500	CC1CC(c2cnc3c(C(F)(F)F)nn([C@H](C)c4ccc(Cl)cc4Cl)c3n2)=CCC1N1CCC[C@H]1C (stereo partly drawn) [Example 88, 1-((R)-1-(2,4-Dichlorophenyl)ethyl)-6-(5-methyl-4-((R)-2-methylpyrrolidin-1-yl)cyclohex-1-en-1-yl)-3-(trifluoromethyl)-1H-pyrazolo[3,4-b]pyrazine trifluoroacetic acid]
> 500	C[C@H](c1ccc(Cl)cc1Cl)n1nc(C#N)c2ncc(N3CC[C@@H](N4CCCCC4)[C@@H](C)C3)nc21 [Example 24, 1-((R)-1-(2,4-Dichlorophenyl)ethyl)-6-((3′S,4′R)-3′-methyl-[1,4′-bipiperidin]-1′-yl)-1H-pyrazolo[3,4-b]pyrazine-3-carbonitrile hydrochloride]
> 500	CC(c1ccc(Cl)cc1Cl)n1nc(C#N)c2ncc(N3CCC(N4CCCCC4)C(F)C3)nc21 (stereo not drawn) [Example 26, 1-(1-(2,4-Dichlorophenyl)ethyl)-6-(3′-fluoro-[1,4′-bipiperidin]-1′-yl)-1H-pyrazolo[3,4-b]pyrazine-3-carbonitrile 2,2,2-trifluoroacetate]
< 100	C[C@@H]1CC(c2cnc3c(C#N)nn([C@H](C)c4ccc(Cl)cc4Cl)c3n2)=CC[C@@H]1N1CCC[C@H]1CO [Example 76, 1-((R)-1-(2,4-Dichlorophenyl)ethyl)-6-((4S,5R)-4-((S)-2-(hydroxymethyl)pyrrolidin-1-yl)-5-methylcyclohex-1-en-1-yl)-1H-pyrazolo[3,4-b]pyrazine-3-carbonitrile]
< 100	Cc1nn([C@H](C)c2ccc(Cl)cc2Cl)c2nc(N3CC[C@H](N4CCCCCCC4)[C@H](C)C3)cnc12 [Example 16, 6-((3R,4S)-4-(Azocan-1-yl)-3-methylpiperidin-1-yl)-1-((R)-1-(2,4-dichlorophenyl)ethyl)-3-methyl-1H-pyrazolo[3,4-b]pyrazine hydrochloride]
> 500	Cc1nn([C@H](C)c2ccc(Cl)cc2Cl)c2nc(N3CCC(N4CCC[C@@H]4C)C(C)C3)cnc12 (stereo partly drawn) [Example 21, 1-((R)-1-(2,4-Dichlorophenyl)ethyl)-3-methyl-6-(3-methyl-4-((S)-2-methylpyrrolidin-1-yl)piperidin-1-yl)-1H-pyrazolo[3,4-b]pyrazine hydrochloride]
100 to 500	Cc1nn([C@H](C)c2ccc(Cl)cc2Cl)c2nc(N3CC[C@H](N4CC=CC4)[C@H](C)C3)cnc12 [Example 17, 1-((R)-1-(2,4-Dichlorophenyl)ethyl)-6-((3R,4S)-4-(2,5-dihydro-1H-pyrrol-1-yl)-3-methylpiperidin-1-yl)-3-methyl-1H-pyrazolo[3,4-b]pyrazine hydrochloride]
100 to 500	CC1CN(c2cnc3c(C(N)=O)nn(C(C)c4ccc(Cl)cc4Cl)c3n2)CCC1N1CCCCC1 (stereo not drawn) [Example 4, 1-(1-(2,4-Dichlorophenyl)ethyl)-6-(3′-methyl-[1,4′-bipiperidin]-1′-yl)-1H-pyrazolo[3,4-b]pyrazine-3-carboxamide hydrochloride]
100 to 500	C[C@H](c1ccc(Cl)cc1Cl)n1nc(C#N)c2ncc(N3CC[C@@H](N4CCCCC4)[C@@H](CO)C3)nc21 [Example 28, 1-((R)-1-(2,4-Dichlorophenyl)ethyl)-6-((3′S,4′R)-3′-(hydroxymethyl)-[1,4′-bipiperidin]-1′-yl)-1H-pyrazolo[3,4-b]pyrazine-3-carbonitrile hydrochloride]
< 100	C[C@@H]1CN(c2cnc3c(C#N)nn([C@H](C)c4ccc(Cl)cc4Cl)c3n2)CC[C@@H]1N1CCC[C@H]1CO [Example 33, 1-((R)-1-(2,4-Dichlorophenyl)ethyl)-6-((3R,4S)-4-((S)-2-(hydroxymethyl)pyrrolidin-1-yl)-3-methylpiperidin-1-yl)-1H-pyrazolo[3,4-b]pyrazine-3-carbonitrile hydrochloride]
> 500	CCOC(=O)c1nn(C(C)c2ccc(Cl)cc2Cl)c2nc(N3CCC(N4CCCCC4)CC3)cnc12 (racemic) [Example 1, Ethyl 6-([1,4′-bipiperidin]-1′-yl)-1-(1-(2,4-dichlorophenyl)ethyl)-1H-pyrazolo[3,4-b]pyrazine-3-carboxylate hydrochloride]
100 to 500	CC1CN(c2cnc3c(C(N)=O)nn([C@H](C)c4ccc(Cl)cc4Cl)c3n2)CCC1N1CCCCC1 (stereo partly drawn) [Example 5, 1-((R)-1-(2,4-Dichlorophenyl)ethyl)-6-(3′-methyl-[1,4′-bipiperidin]-1′-yl)-1H-pyrazolo[3,4-b]pyrazine-3-carboxamide 2,2,2-trifluoroacetate]
100 to 500	C[C@@H]1CC(c2cnc3c(C#N)nn([C@H](C)c4ccc(Cl)cc4Cl)c3n2)=CC[C@@H]1N1CCC[C@H]1CNS(C)(=O)=O [Example 82, N—(((S)-1-((1S,6R)-4-(3-Cyano-1-((R)-1-(2,4-dichlorophenyl)ethyl)-1H-pyrazolo[3,4-b]pyrazin-6-yl)-6-methylcyclohex-3-en-1-yl)pyrrolidin-2-yl)methyl)methanesulfonamide hydrochloride]
> 500	CC1CN(c2cnc3c(C(F)(F)F)nn(C(C)c4ccc(Cl)cc4Cl)c3n2)CCC1N1CCCCC1 (stereo not drawn) [Example 10, 1-(1-(2,4-Dichlorophenyl)ethyl)-6-(3′-methyl-[1,4′-bipiperidin]-1′-yl)-3-(trifluoromethyl)-1H-pyrazolo[3,4-b]pyrazine hydrochloride]
> 500	Cc1nn([C@H](C)c2ccc(Cl)cc2Cl)c2nc(N3CCC(N4CCC[C@H]4CC(F)(F)C(=O)O)C(C)C3)cnc12 (stereo partly drawn) [Example 58, 3-((2S)-1-(1-(1-((R)-1-(2,4-Dichlorophenyl)ethyl)-3-methyl-1H-pyrazolo[3,4-b]pyrazin-6-yl)-3-methylpiperidin-4-yl)pyrrolidin-2-yl)-2,2-difluoropropanoic acid 2,2,2-trifluoroacetate]

SMILES	IC50 [nM]
CC1CC(c2cnc3c(C#N)nn([C@H](C)c4ccc(Cl)cc4Cl)c3n2)=CCC1N1CCC[C@H]1C(N)=O (stereo partly drawn) [Example 79, (2S)-1-(4-(3-Cyano-1-((R)-1-(2,4-dichlorophenyl)ethyl)-1H-pyrazolo[3,4-b]pyrazin-6-yl)-6-methylcyclohex-3-en-1-yl)pyrrolidine-2-carboxamide hydrochloride]	< 100

Same assay, conditions: hydrochloride

IC50 [nM]	SMILES
> 500	Cc1nn([C@H](C)c2ccc(Cl)cc2Cl)c2nc(C3=CCC(N4CCC[C@H]4CCC(=O)O)C(C)C3)cnc12 (stereo in doubt) [Example 72, 3-((S)-1-((1R,6S)-4-(1-((R)-1-(2,4-Dichlorophenyl)ethyl)-3-methyl-1H-pyrazolo[3,4-b]pyrazin-6-yl)-6-methylcyclohex-3-en-1-yl)pyrrolidin-2-yl)propanoic acid hydrochloride]
